Results from US11999737B2, “Kinase inhibitors and related methods of use” (Duke University, priority 2014, dated 2024).

Key:
[1] = target: GFP-ZIPK (Homo sapiens, UniProt O43293); test: FLECS elution of GFP-ZIPK from γ-linked ATP Sepharose media; assay type: binding; conditions: titration from ATP Sepharose
[2] = target: PIM3-GFP (Homo sapiens, UniProt Q86V86); test: FLECS elution of PIM3-GFP from γ-linked ATP Sepharose media; assay type: binding; conditions: titration from ATP Sepharose; calculated from EC50; read-out: apparent Kd, elution of PIM3-GFP

Chain of GFP-ZIPK (O43293 whole entry): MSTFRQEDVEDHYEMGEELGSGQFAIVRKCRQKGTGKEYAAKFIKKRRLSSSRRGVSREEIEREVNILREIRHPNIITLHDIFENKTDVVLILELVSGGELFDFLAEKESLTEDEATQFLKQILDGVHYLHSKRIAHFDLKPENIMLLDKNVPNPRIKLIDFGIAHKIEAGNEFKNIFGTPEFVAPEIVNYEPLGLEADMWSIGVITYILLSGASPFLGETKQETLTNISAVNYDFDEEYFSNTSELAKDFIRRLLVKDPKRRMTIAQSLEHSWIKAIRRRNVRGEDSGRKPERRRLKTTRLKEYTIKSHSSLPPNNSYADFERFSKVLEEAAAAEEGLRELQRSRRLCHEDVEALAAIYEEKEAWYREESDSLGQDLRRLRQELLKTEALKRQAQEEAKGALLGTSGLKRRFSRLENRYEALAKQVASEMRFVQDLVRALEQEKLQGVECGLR

elution of full length GFP-ZIPK [1]: failed to elute
Kd [2]: 201 nM
Structure (SMILES): O=S(=O)(c1cccc2c(I)cccc12)N1CCCNCC1 [ML-7, reference compound]
